Values of other authors as cited in patent publication US20130136752A1, “Ophthalmic Formulations” (OXIGENE, INC., priority 2010, published 2013).

Columns and labels:
[1] = system: choroidal neovascularization (CNV); settings: rho/VEGF mice, P7 to P21
[2] = system: vessels with anomalous structure

Q: What does the source list for `COc1ccc(/C=C\c2cc(OC)c(OC)c(OC)c2)cc1OP(=O)(O)O` [CA4P, combretastatin A4 phosphate]?
A: neovascular lesions at P21 ([1]; 2.2 mg/kg daily IP): numerous neovascular lesions; number of neovascular lesions and total area of neovascularization per retina versus vehicle ([1]; 4.0 mg/kg daily IP): significant reduction; systemic dose levels disrupting aberrant vessels ([2]; aberrant vessels induced by overexpression of VEGF or by exposure to elevated oxygen): 3 to 4 mg/kg; systemic dose level required for normal immature vessels ([2]; normal immature vessels induced by burn injury): 75 mg/kg
